Results reported in patent publication US20120076766A1, “Topical drug delivery system with dual carriers” (priority 2010, published 2012).

Tests used:
HL-60 cells = settings: cited from earlier work
MRSA = test: Study III: human field study, diabetic foot lesion with cellulitus; assay type: in vivo; settings: IV, for MRSA, 8 days following admission
Method: In this embodiment, the additional ingredient to hasten a third therapeutic tissue healing effect was added. This embodiment used vitamin D in a small but medically efficacious amount.

Compound | amount at which results (desired cellular responses) occurred (HL-60 cells) | patient response to treatment (MRSA) | subsequent retinoid-induced TGM2 expression (HL-60 cells; priming of the cells by pretreatment)
C[S+](C)[O-] [DMSO, dimethyl sulfoxide] | less than 2% | – | –
CN[C@H](CC(C)C)C(=O)N[C@H]1C(=O)N[C@@H](CC(N)=O)C(=O)N[C@H]2C(=O)N[C@H]3C(=O)N[C@H](C(=O)N[C@H](C(=O)O)c4cc(O)cc(O)c4-c4cc3ccc4O)[C@H](O)c3ccc(c(Cl)c3)Oc3cc2cc(c3O[C@@H]2O[C@H](CO)[C@@H](O)[C@H](O)[C@H]2O[C@H]2C[C@](C)(N)[C@H](O)[C@H](C)O2)Oc2ccc(cc2Cl)[C@H]1O [vancomycin, Vancomycin] | – | did not respond | –
vitamin D | about 100 nM | – | increases
